Read-outs that look alike come from different tables or passages of the source.

In experiment [1] the test system is pERK (phospho-p44/42 ERK) in HCC827 cells. The experiment can be described thus: Cellular pERK Inhibition Assay, Method A (In-Cell Western). The class given is cell-based. The method, boiled down: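 HCC827 cells in RPMI/10% FBS were treated with compounds in serum-free medium (0.2% DMSO final) at 37 °C for the indicated time, in quadruplicate. Fixed cells were immunostained for phospho-p44/42 ERK and read by infrared imaging. Blank-subtracted signal was expressed as % of DMSO control; IC50 from four-parameter logistic fit, averaged across experiments.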

The next experiment has as its target SHP2 (Homo sapiens (Human), UniProt Q06124). The experiment is described as follows: SHP2 Biochemical Assay (DiFMUP conversion, pIRS1-activated). Summed up: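 Human SHP2 (10 pM) pre-incubated 30 min with compound and […] pIRS1 activating peptide, then 50 μM DiFMUP added; buffer 25 mM Bis-Tris propane pH 7.0, 150 mM NaCl, 5% DMSO. Fluorescence rate (ex 360/em 450 nm) over 30 min; IC50 by four-parameter fit, averaged across experiments.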

Where [2] appears, read: Homo sapiens, Table 19, head prints unit as "-M", read-out: pERK (IC50) Method A.
The mark [3] stands for this setting: Table 19, head prints unit as "-M".

Sequence of SHP2 (Q06124 whole entry): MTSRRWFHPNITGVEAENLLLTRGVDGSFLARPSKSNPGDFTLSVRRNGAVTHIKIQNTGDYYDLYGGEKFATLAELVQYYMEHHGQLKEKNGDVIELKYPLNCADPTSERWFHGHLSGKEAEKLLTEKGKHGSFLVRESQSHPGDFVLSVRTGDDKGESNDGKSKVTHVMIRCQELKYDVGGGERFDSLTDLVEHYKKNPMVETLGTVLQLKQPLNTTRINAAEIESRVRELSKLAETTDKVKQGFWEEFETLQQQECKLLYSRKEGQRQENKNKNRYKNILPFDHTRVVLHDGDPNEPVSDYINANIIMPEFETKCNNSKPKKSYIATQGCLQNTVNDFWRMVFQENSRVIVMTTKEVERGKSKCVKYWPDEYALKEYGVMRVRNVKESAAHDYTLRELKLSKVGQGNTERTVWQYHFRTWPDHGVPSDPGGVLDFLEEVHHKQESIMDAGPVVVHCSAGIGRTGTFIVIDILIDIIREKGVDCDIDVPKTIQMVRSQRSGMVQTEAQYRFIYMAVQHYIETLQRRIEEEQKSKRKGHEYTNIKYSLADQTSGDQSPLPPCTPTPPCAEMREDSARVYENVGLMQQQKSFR

Turning to `Cc1nc2ccc(-c3c[nH]c4nc(N5CC6COCC(C5)N6)n(C)c(=O)c34)c(Cl)c2s1` [Example 81, 2-(3-oxa-7,9-diazabicyclo[3.3.1]nonan-7-yl)-5-(7-chloro-2-methylbenzo[d]thiazol-6-yl)-3-methyl-3,7-dihydro-4H-pyrrolo[2,3-d]pyrimidin-4-one], the results for the IC50 (in experiment [1] (setting [2]); at SHP2 (setting [3])) were 0.78 µM and 14 nM, respectively.
In the same order, the values of `Cn1cc2c(Cl)c(-c3c[nH]c4nc(N5C[C@H](N)[C@@H](F)C5)n(C)c(=O)c34)ccc2n1` [Example 52, 2-((3S,4S)-3-amino-4-fluoropyrrolidin-1-yl)-5-(4-chloro-2-methyl-2H-indazol-5-yl)-3-methyl-3,7-dihydro-4H-pyrrolo[2,3-d]pyrimidin-4-one] are 1.9 µM and 180 nM.
For `C[C@@H]1CN(c2nc3[nH]cc(-c4ccc5nn(C)cc5c4Cl)c3c(=O)n2C)C[C@@H]1N` [Example 56, 2-((3R,4R)-3-amino-4-methylpyrrolidin-1-yl)-5-(4-chloro-2-methyl-2H-indazol-5-yl)-3-methyl-3,7-dihydro-4H-pyrrolo[2,3-d]pyrimidin-4-one] the same measures were 1.1 µM and 73 nM.
For `CN[C@@H]1C[C@@H]2CC[C@H]1N2c1nc2[nH]nc(-c3ccc4nc(C)sc4c3Cl)c2c(=O)n1C` [Example 124, 3-(7-chloro-2-methylbenzo[d]thiazol-6-yl)-5-methyl-6-((1R,2R,4S)-2-(methylamino)-7-azabicyclo[2.2.1]heptan-7-yl)-1,5-dihydro-4H-pyrazolo[3,4-d]pyrimidin-4-one] the same measures were 0.43 µM and 19 nM.
With `CN(C)C(=O)CCn1nc2ccc(-c3c[nH]c4nc(N5C6CCC5CNC6)n(C)c(=O)c34)c(Cl)c2c1Cl` [Example 89, 3-(5-(2-(3,8-diazabicyclo[3.2.1]octan-8-yl)-3-methyl-4-oxo-4,7-dihydro-3H-pyrrolo[2,3-d]pyrimidin-5-yl)-3,4-dichloro-2H-indazol-2-yl)-N,N-dimethylpropanamide], the IC50 in experiment [1] (setting [2]) is 0.54 µM; against SHP2 (setting [3]) it was 14 nM.
In the same order, the values of `Cn1cc2c(Cl)c(-c3c[nH]c4nc(N5CCC6(CCCN6)CC5)n(C)c(=O)c34)ccc2n1` [Example 38, 5-(4-chloro-2-methyl-2H-indazol-5-yl)-3-methyl-2-(1,8-diazaspiro[4.5]decan-8-yl)-3,7-dihydro-4H-pyrrolo[2,3-d]pyrimidin-4-one] are 1.4 µM and 74 nM.
In the same order, the values of `CCn1cc2c(Cl)c(-c3n[nH]c4nc(N5C[C@@H]6CC[C@H]5[C@H]6N)n(C)c(=O)c34)ccc2n1` (racemic) [Example 125, rac-6-((1S,4S,7S)-7-amino-2-azabicyclo[2.2.1]heptan-2-yl)-3-(4-chloro-2-ethyl-2H-indazol-5-yl)-5-methyl-1,5-dihydro-4H-pyrazolo[3,4-d]pyrimidin-4-one] are 0.26 µM and 17 nM.
For `CCc1nc2ccc(-c3c[nH]c4nc(N5[C@@H]6CC[C@H]5C[C@@H](N)C6)n(C)c(=O)c34)c(Cl)c2s1` [Example 6, 2-(endo-3-amino-8-azabicyclo[3.2.1]octan-8-yl)-5-(7-chloro-2-ethylbenzo[d]thiazol-6-yl)-3-methyl-3,7-dihydro-4H-pyrrolo[2,3-d]pyrimidin-4-one] the same measures were 0.58 µM and 6.5 nM.
For `Cn1c(N2[C@@H]3CC[C@H]2C[C@@H](N)C3)nc2[nH]cc(-c3ccc4nn(CC(C)(C)O)cc4c3Cl)c2c1=O` [Example 75, 2-(endo-3-amino-8-azabicyclo[3.2.1]octan-8-yl)-5-(4-chloro-2-(2-hydroxy-2-methylpropyl)-2H-indazol-5-yl)-3-methyl-3,7-dihydro-4H-pyrrolo[2,3-d]pyrimidin-4-one], the IC50 was found to be 2.1 µM in experiment [1] (setting [2]) and 28 nM against SHP2 (setting [3]).
For `Cn1cc2c(Cl)c(-c3c[nH]c4nc(N5CC[C@H](CN)C5)n(C)c(=O)c34)ccc2n1` [Example 60, (R)-2-(3-(aminomethyl)pyrrolidin-1-yl)-5-(4-chloro-2-methyl-2H-indazol-5-yl)-3-methyl-3,7-dihydro-4H-pyrrolo[2,3-d]pyrimidin-4-one] the same measures were 3.8 µM and 82 nM.
For `CN[C@@H]1C[C@@H]2CC[C@H]1N2c1nc2[nH]cc(-c3ccc4nn(C)c(Cl)c4c3F)c2c(=O)n1C` [Example 106, 5-(3-chloro-4-fluoro-2-methyl-2H-indazol-5-yl)-3-methyl-2-((1R,2R,4S)-2-(methylamino)-7-azabicyclo[2.2.1]heptan-7-yl)-3,7-dihydro-4H-pyrrolo[2,3-d]pyrimidin-4-one] the same measures were 0.1 µM and 5 nM.
For `Cn1cc2c(Cl)c(-c3c[nH]c4nc(N5C[C@@H](N)[C@@H](F)C5)n(C)c(=O)c34)ccc2n1` [Example 50, 2-((3R,4S)-3-amino-4-fluoropyrrolidin-1-yl)-5-(4-chloro-2-methyl-2H-indazol-5-yl)-3-methyl-3,7-dihydro-4H-pyrrolo[2,3-d]pyrimidin-4-one] the same measures were 4.7 µM and 250 nM.
As for `CN(C)c1cnc2ccc(-c3c[nH]c4nc(N5[C@H]6CC[C@@H]5[C@H](N)C6)n(C)c(=O)c34)c(Cl)c2n1` [Example 170, 2-((1R,2R,4S)-2-amino-7-azabicyclo[2.2.1]heptan-7-yl)-5-(5-chloro-3-(dimethylamino)quinoxalin-6-yl)-3-methyl-3,7-dihydro-4H-pyrrolo[2,3-d]pyrimidin-4-one], the IC50 in experiment [1] (Homo sapiens, Table 20, read-out: pERK (IC50, μM) Method A) was 0.016 µM; on SHP2 (Table 20), 3 nM.
`CN(C)C(=O)Cn1nc2ccc(-c3c[nH]c4nc(N5C6CCCC5CNC6)n(C)c(=O)c34)c(Cl)c2c1Cl` [Example 82, 2-(5-(2-(3,9-diazabicyclo[3.3.1]nonan-9-yl)-3-methyl-4-oxo-4,7-dihydro-3H-pyrrolo[2,3-d]pyrimidin-5-yl)-3,4-dichloro-2H-indazol-2-yl)-N,N-dimethylacetamide]: the figures for the IC50 (in experiment [1] (setting [2]); against SHP2 (setting [3])) were 0.91 µM and 14 nM, respectively.
In the same order, the values of `Cn1cc2c(Cl)c(-c3c[nH]c4nc(N5CC6CCC5CN6)n(C)c(=O)c34)ccc2n1` (centres unmarked) [Example 32, 2-(2,5-diazabicyclo[2.2.2]octan-2-yl)-5-(4-chloro-2-methyl-2H-indazol-5-yl)-3-methyl-3,7-dihydro-4H-pyrrolo[2,3-d]pyrimidin-4-one] are 0.92 µM and 17 nM.
In the same order, the values of `Cn1nc2ccc(-c3c[nH]c4nc(N5C6CCC5CNC6)n(C)c(=O)c34)c(Cl)c2n1` [Example 87, 2-(3,8-diazabicyclo[3.2.1]octan-8-yl)-5-(4-chloro-2-methyl-2H-benzo[d][1,2,3]triazol-5-yl)-3-methyl-3,7-dihydro-4H-pyrrolo[2,3-d]pyrimidin-4-one] are 0.58 µM and 68 nM.
For `Cn1cc2c(Cl)c(-c3c[nH]c4nc(N5CC6CC5CC6N)n(C)c(=O)c34)ccc2n1` (centres unmarked) [Example 35, 2-(5-amino-2-azabicyclo[2.2.1]heptan-2-yl)-5-(4-chloro-2-methyl-2H-indazol-5-yl)-3-methyl-3,7-dihydro-4H-pyrrolo[2,3-d]pyrimidin-4-one] the same measures were 1 µM and 38 nM.
With `CCn1nc2ccc(-c3c[nH]c4nc(N5[C@H]6CC[C@@H]5[C@H](N)C6)n(C)c(=O)c34)c(Cl)c2c1C#N` [Example 159, 5-(2-((1R,2R,4S)-2-Amino-7-azabicyclo[2.2.1]heptan-7-yl)-3-methyl-4-oxo-4,7-dihydro-3H-pyrrolo[2,3-d]pyrimidin-5-yl)-4-chloro-2-ethyl-2H-indazole-3-carbonitrile], the IC50 in experiment [1] (setting [2]) turned out to be 0.15 µM; at SHP2 (setting [3]) it was 3.5 nM.
`Cn1nc2ccc(-c3n[nH]c4nc(N5C6CCCC5CNC6)n(C)c(=O)c34)c(Cl)c2c1Cl` [Example 116, 6-(3,9-diazabicyclo[3.3.1]nonan-9-yl)-3-(3,4-dichloro-2-methyl-2H-indazol-5-yl)-5-methyl-1,5-dihydro-4H-pyrazolo[3,4-d]pyrimidin-4-one]: the results for the IC50 (in experiment [1] (setting [2]); at SHP2 (setting [3])) were 0.1 µM and 9 nM, respectively.
For `Cn1c(N2[C@H]3CC[C@@H]2[C@H](N)C3)nc2[nH]cc(-c3ccc4nn(CF)c(Cl)c4c3Cl)c2c1=O` [Example 103, 2-((1R,2R,4S)-2-amino-7-azabicyclo[2.2.1]heptan-7-yl)-5-(3,4-dichloro-2-(fluoromethyl)-2H-indazol-5-yl)-3-methyl-3,7-dihydro-4H-pyrrolo[2,3-d]pyrimidin-4-one] the same measures were 0.026 µM and 2 nM.
Take `CN[C@@H]1C[C@@H]2CC[C@H]1N2c1nc2[nH]cc(-c3ccc4nn(C)cc4c3Cl)c2c(=O)n1C` [Example 97, 5-(4-chloro-2-methyl-2H-indazol-5-yl)-3-methyl-2-((1R,2R,4S)-2-(methylamino)-7-azabicyclo[2.2.1]heptan-7-yl)-3,7-dihydro-4H-pyrrolo[2,3-d]pyrimidin-4-one]: the IC50 was 0.082 µM in experiment [1] (setting [2]) and 7.7 nM against SHP2 (setting [3]).
On to `Cn1c(N2C3CCC2CC(N)C3)nc2[nH]cc(-c3cc4nnn(C)c4c(F)c3F)c2c1=O` (stereo not drawn) [Example 71, 2-(endo-3-amino-8-azabicyclo[3.2.1]octan-8-yl)-5-(6,7-difluoro-1-methyl-1H-benzo[d][1,2,3]triazol-5-yl)-3-methyl-3,7-dihydro-4H-pyrrolo[2,3-d]pyrimidin-4-one], for which the half-maximal inhibitory concentration (IC50) in experiment [1] (Table 19, head prints unit as "-M", read-out: pERK (IC50) Method A) turned out to be 5 µM; on SHP2 (setting [3]), 260 nM.
